Data taken from PubChem BioAssay (NCI).
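Dose response: 5 concentrations. Exposure: 48 h. Format: 96-well plates. Endpoint: linear interpolation; highest concentration if not reached. GI50 marks 50% less growth. The concentration for full growth arrest is given as TGI.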

Experiments:
Test in all cases: NCI anticancer screen, dose series, 48 h
[1] = tested on: U251 CNS
[2] = tested on: T-47D breast
[3] = tested on: MCF7 breast
[4] = tested on: MOLT-4 leukemia
[5] = tested on: CCRF-CEM leukemia
[6] = tested on: CAKI-1 renal
[7] = tested on: SK-MEL-5 melanoma
[8] = tested on: UO-31 renal
[9] = tested on: EKVX NSCLC
[10] = tested on: SR leukemia
[11] = tested on: NCI/ADR-RES ovarian
[12] = tested on: MDA-MB-468 breast
[13] = tested on: SK-MEL-28 melanoma
[14] = tested on: NCI-H522 lung
[15] = tested on: HCT-116 colon
[16] = tested on: 786-0 renal
[17] = tested on: HOP-92 NSCLC
[18] = tested on: BT-549 breast
[19] = tested on: HCT-15 colon
[20] = tested on: NCI-H460 lung
[21] = tested on: OVCAR-8 ovarian
[22] = tested on: NCI-H23 lung
[23] = tested on: KM12 colon
[24] = tested on: MDA-MB-435
[25] = tested on: OVCAR-4 ovarian
[26] = tested on: UACC-62 melanoma
[27] = tested on: M14 melanoma
[28] = tested on: A549 NSCLC
[29] = tested on: HL-60(TB) leukemia
[30] = tested on: SK-MEL-2 melanoma
[31] = tested on: SNB-19 CNS
[32] = tested on: RPMI-8226 leukemia
[33] = tested on: SW-620 colon
[34] = tested on: MDA-MB-231 breast
[35] = tested on: MALME-3M melanoma
[36] = tested on: SF-539 CNS
[37] = tested on: A498 renal
[38] = tested on: UACC-257 melanoma
[39] = tested on: NCI-H226 lung
[40] = tested on: LOX IMVI melanoma
[41] = tested on: HT29 colon
[42] = tested on: DU-145 prostate
[43] = tested on: SF-295 CNS
[44] = tested on: PC-3 prostate
[45] = tested on: SN12C renal
[46] = tested on: SNB-75 CNS
[47] = tested on: ACHN renal
[48] = tested on: TK-10 renal
[49] = tested on: RXF 393 renal
[50] = tested on: K-562 leukemia
[51] = tested on: SF-268 CNS
[52] = tested on: SK-OV-3 ovarian
[53] = tested on: HCC-2998 colon
[54] = tested on: OVCAR-3 ovarian
[55] = tested on: HS 578T breast
[56] = tested on: IGROV1 ovarian
[57] = tested on: COLO 205 colon
[58] = tested on: HOP-62 NSCLC
[59] = tested on: OVCAR-5 ovarian

c1ccc(CSc2nnc(-c3ccc4nc(-c5ccccc5)[nH]c4c3)o2)cc1
GI50 [1]: 13.8 µM
TGI [1]: 29.8 µM
GI50 [2]: 3.6 µM
TGI [2]: 19.1 µM
GI50 [3]: 11.1 µM
TGI [3]: 26.4 µM
GI50 [4]: 5.75 µM
TGI [4]: > 100 µM
GI50 [5]: 8.83 µM
TGI [5]: > 100 µM
GI50 [6]: 10.5 µM
TGI [6]: 22.2 µM
GI50 [7]: 7.25 µM
TGI [7]: > 100 µM
GI50 [8]: 11.3 µM
TGI [8]: 23.7 µM
GI50 [9]: 14.5 µM
TGI [9]: > 100 µM
GI50 [10]: 22.4 µM
TGI [10]: > 100 µM
GI50 [11]: 11.1 µM
TGI [11]: 37.3 µM
GI50 [12]: 7.57 µM
TGI [12]: 27.7 µM
GI50 [13]: 14.7 µM
TGI [13]: 33 µM
GI50 [14]: 12.1 µM
TGI [14]: 39 µM
GI50 [15]: 11.9 µM
TGI [15]: 25.7 µM
GI50 [16]: 8.83 µM
TGI [16]: 22.9 µM
GI50 [17]: 13.3 µM
TGI [17]: 39.9 µM
GI50 [18]: 12.8 µM
TGI [18]: 30.2 µM
GI50 [19]: 8.29 µM
TGI [19]: 28.8 µM
GI50 [20]: 12.3 µM
TGI [20]: 27.5 µM
GI50 [21]: 14.6 µM
TGI [21]: 30.4 µM
GI50 [22]: 22.9 µM
TGI [22]: 73.5 µM
GI50 [23]: 29.4 µM
TGI [23]: > 100 µM
GI50 [24]: 12 µM
TGI [24]: 28.3 µM
GI50 [25]: 11.1 µM
TGI [25]: 23.3 µM
GI50 [26]: 13.8 µM
TGI [26]: 31.4 µM
GI50 [27]: 14.6 µM
TGI [27]: 36.5 µM
GI50 [28]: 12 µM
TGI [28]: 28.7 µM
GI50 [29]: 24.2 µM
TGI [29]: > 100 µM
GI50 [30]: 17 µM
TGI [30]: 64.1 µM
GI50 [31]: 14.3 µM
TGI [31]: 30 µM
GI50 [32]: 7.03 µM
TGI [32]: > 100 µM
GI50 [33]: 17.8 µM
TGI [33]: 40.3 µM
GI50 [34]: 16.8 µM
TGI [34]: 34.7 µM
GI50 [35]: 12.5 µM
TGI [35]: 28.3 µM
GI50 [36]: 11.3 µM
TGI [36]: 23.4 µM
GI50 [37]: 12.4 µM
TGI [37]: 25.4 µM
GI50 [38]: 23.6 µM
TGI [38]: 85.2 µM
GI50 [39]: 12.6 µM
TGI [39]: 37.4 µM
GI50 [40]: 15.8 µM
TGI [40]: 34 µM
GI50 [41]: 6.24 µM
TGI [41]: > 100 µM
GI50 [42]: 16.2 µM
TGI [42]: 37 µM
GI50 [43]: 10.4 µM
TGI [43]: 24 µM
GI50 [44]: 11.3 µM
TGI [44]: 32.3 µM
GI50 [45]: 12.1 µM
TGI [45]: 25.7 µM
GI50 [46]: 10.8 µM
TGI [46]: 24.8 µM
GI50 [47]: 14.3 µM
TGI [47]: 28 µM
GI50 [48]: 14.8 µM
TGI [48]: 29.7 µM
GI50 [49]: 4.77 µM
TGI [49]: 22.6 µM
GI50 [50]: 8.05 µM
TGI [50]: > 100 µM
GI50 [51]: 14.1 µM
TGI [51]: 38.8 µM
GI50 [52]: 18.7 µM
TGI [52]: 48.5 µM
GI50 [53]: 34.8 µM
TGI [53]: > 100 µM
GI50 [54]: 15.9 µM
TGI [54]: 33.6 µM
GI50 [55]: 18.8 µM
TGI [55]: 57.2 µM
GI50 [56]: 20.4 µM
TGI [56]: 46 µM
GI50 [57]: 32.6 µM
TGI [57]: > 100 µM
GI50 [58]: 20.2 µM
TGI [58]: 44.8 µM
GI50 [59]: 24.1 µM
TGI [59]: 97.7 µM
